Activity calls are given as the source filed them. No cut-off for these calls is given here.
Legend:
[1] = target: Serine/threonine-protein kinase mTOR (Homo sapiens, UniProt P42345); experiment: Inhibition of N-terminal FLAG-tagged recombinant human mTOR (1362 to end residue) using ULight-4EBP1 peptide as substrate incubated for 30 mins in presence of ATP by Lance ultra assay
[2] = target: T1, Phosphatidylinositol 4,5-bisphosphate 3-kinase catalytic subunit beta isoform (Homo sapiens, UniProt P42338); experiment: Inhibition of PI3Kbeta (unknown origin) using PIP2 as substrate incubated for 1 hr in presence of ATP by Kinase Glo luminescence assay
T1 sequence (P42338 whole entry, canonical isoform): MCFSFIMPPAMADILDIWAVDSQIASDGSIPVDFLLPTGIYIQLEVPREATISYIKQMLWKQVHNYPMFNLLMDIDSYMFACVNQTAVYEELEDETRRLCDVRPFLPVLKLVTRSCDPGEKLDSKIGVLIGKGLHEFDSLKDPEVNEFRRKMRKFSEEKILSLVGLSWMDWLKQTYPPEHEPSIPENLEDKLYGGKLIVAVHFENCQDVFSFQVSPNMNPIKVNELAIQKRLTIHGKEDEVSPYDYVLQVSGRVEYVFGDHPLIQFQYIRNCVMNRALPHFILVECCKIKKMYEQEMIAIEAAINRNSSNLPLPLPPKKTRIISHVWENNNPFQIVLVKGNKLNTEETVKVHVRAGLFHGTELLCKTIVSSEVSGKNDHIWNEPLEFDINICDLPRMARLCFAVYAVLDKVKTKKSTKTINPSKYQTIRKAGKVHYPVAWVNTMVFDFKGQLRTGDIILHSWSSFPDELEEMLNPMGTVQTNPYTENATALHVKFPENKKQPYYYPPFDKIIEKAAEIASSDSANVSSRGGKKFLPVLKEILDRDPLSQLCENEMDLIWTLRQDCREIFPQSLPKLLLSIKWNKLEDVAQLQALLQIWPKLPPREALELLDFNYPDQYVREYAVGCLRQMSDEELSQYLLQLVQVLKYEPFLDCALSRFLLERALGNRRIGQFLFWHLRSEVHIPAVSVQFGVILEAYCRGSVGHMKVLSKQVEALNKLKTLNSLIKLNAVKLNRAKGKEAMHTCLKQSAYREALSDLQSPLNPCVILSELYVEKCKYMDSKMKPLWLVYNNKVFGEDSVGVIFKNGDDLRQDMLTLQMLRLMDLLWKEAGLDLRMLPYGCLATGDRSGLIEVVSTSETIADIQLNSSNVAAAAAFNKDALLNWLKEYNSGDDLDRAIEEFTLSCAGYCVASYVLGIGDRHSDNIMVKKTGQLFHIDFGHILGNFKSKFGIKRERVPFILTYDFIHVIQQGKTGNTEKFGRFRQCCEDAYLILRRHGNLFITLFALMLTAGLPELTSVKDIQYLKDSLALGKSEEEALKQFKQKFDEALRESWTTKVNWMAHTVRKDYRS

[3] = tested on: NCI-H3122; experiment: Antiproliferative activity against human NCI-H3122 cells assessed as inhibition of cell growth incubated for 48 to 72 hrs by MTT assay; type: functional, cell-based
[4] = tested on: SW-620; experiment: Inhibition of colony formation in human SW620 cells assessed as reduction in colony forming ability incubated for 15 days by crystal violet staining based analysis; type: functional, cell-based; details: dose 0.15625-1.25 µM, time 15.0 day, DDE = dose-dependent effect
[5] = tested on: HeLa; experiment: Induction of apoptosis in human HeLa cells assessed as early apoptotic cells at 0.15625 uM incubated for 36 hrs by Annexin V-FITC/PI staining based flow cytometric analysis (reference value: 2.02 %); type: functional; details: 0.1562 µM
[6] = tested on: HeLa; experiment: Induction of apoptosis in human HeLa cells assessed as late apoptotic cells at 0.15625 uM incubated for 36 hrs by Annexin V-FITC/PI staining based flow cytometric analysis (reference value: 1.4 %); type: functional; details: 0.1562 µM
[7] = tested on: HeLa; experiment: Induction of apoptosis in human HeLa cells assessed as viable cells at 0.3125 uM incubated for 36 hrs by Annexin V-FITC/PI staining based flow cytometric analysis (reference value: 96.14 %); type: functional; details: read-out: Activity
[8] = tested on: HeLa; experiment: Induction of apoptosis in human HeLa cells assessed as early apoptotic cells at 0.625 uM incubated for 36 hrs by Annexin V-FITC/PI staining based flow cytometric analysis (reference value: 2.02 %); type: functional
[9] = tested on: HeLa; experiment: Induction of apoptosis in human HeLa cells assessed as viable cells at 1.25 uM incubated for 36 hrs by Annexin V-FITC/PI staining based flow cytometric analysis (reference value: 96.14 %); type: functional; details: read-out: Activity
[10] = tested on: HeLa; experiment: Induction of apoptosis in human HeLa cells assessed as early apoptotic cells at 1.25 uM incubated for 36 hrs by Annexin V-FITC/PI staining based flow cytometric analysis (reference value: 2.02 %); type: functional
[11] = tested on: HeLa; experiment: Induction of apoptosis in human HeLa cells assessed as late apoptotic cells at 1.25 uM incubated for 36 hrs by Annexin V-FITC/PI staining based flow cytometric analysis (reference value: 1.4 %); type: functional
[12] = tested on: HeLa; experiment: Induction of apoptosis in human HeLa cells assessed as late apoptotic cells at 2.5 uM incubated for 36 hrs by Annexin V-FITC/PI staining based flow cytometric analysis (reference value: 1.4 %); type: functional
[13] = tested on: HeLa; experiment: Induction of apoptosis in human HeLa cells assessed as dead cells at 2.5 uM incubated for 36 hrs by Annexin V-FITC/PI staining based flow cytometric analysis (reference value: 0.44 %); type: functional
[14] = tested on: HeLa; experiment: Inhibition of PI3K/mTOR signalling pathway in human HeLa cells assessed as inhibition of Akt phosphorylation at Ser473 residue incubated for 24 hrs by Western blot analysis; type: cell-based; details: dose 0.3125-2.5 µM, DDE = dose-dependent effect
[15] = Volume of distribution at steady state in Sprague-Dawley rat at 1 mg/kg, iv measured for 24 hrs by LC-MS/MS analysis; type: ADME, organism-based; details: in vivo, read-out: Vdss
[16] = Cmax in Sprague-Dawley rat at 10 mg/kg, po measured for 24 hrs by LC-MS/MS analysis; type: ADME, organism-based; set-up: time 24 hrs, dose 10 mg/kg, route po; details: in vivo
[17] = Tmax in Sprague-Dawley rat at 10 mg/kg, po measured for 24 hrs by LC-MS/MS analysis; type: ADME, organism-based; details: in vivo
[18] = AUC (0 to infinity) in Sprague-Dawley rat at 10 mg/kg, po measured for 24 hrs by LC-MS/MS analysis; type: ADME, organism-based; set-up: time 24 hrs, dose 10 mg/kg, route po; details: in vivo
[19] = Oral bioavailability in Sprague-Dawley rat at 10 mg/kg measured for 24 hrs by LC-MS/MS analysis; type: ADME, organism-based; details: in vivo
[20] = tested on: HeLa; experiment: Antitumor activity against human HeLa cells xenografted in BALB/c nude mouse assessed as tumor growth inhibition at 15 mg/kg, IG administered daily for 30 days and measured every 2 days relative to control; type: functional; details: po, 720 h, time 30 day, read-out: TGI
[21] = tested on: SW-620; experiment: Antitumor activity against human SW620 cells xenografted in BALB/c nude mouse assessed as tumor growth inhibition at 60 mg/kg, IG administered daily for 30 days and measured every 2 days relative to control; type: functional; details: SW-620, po, 720 h, time 30 day, read-out: TGI
[22] = Toxicity in BALB/c nude mouse xenografted with human SW620 cells assessed as lethality at 15 to 60 mg/kg, IG administered daily for 30 days and measured every 2 days; type: organism-based, SW-620; details: in vivo, po, 720 h, dose 15-60 mg/kg, time 30 day
[23] = Toxicity in BALB/c nude mouse xenografted with human HeLa cells assessed as reduction in body weight at 15 to 60 mg/kg, IG administered daily for 30 days and measured every 2 days; type: organism-based; details: in vivo, po, 720 h, dose 15-60 mg/kg, time 30 day
[24] = tested on: Mus musculus; experiment: In vivo inhibition of PI3K/mTOR signalling pathway in BALB/c nude mouse xenografted with human HeLa cells assessed as downregulation of Akt phosphorylation at Ser473 residue in tumor at 15 to 60 mg/kg, IG administered daily for 30 days; type: functional, organism-based; details: dose 15-60 mg/kg, time 30.0 day
[25] = tested on: Mus musculus; experiment: In vivo inhibition of PI3K/mTOR signalling pathway in BALB/c nude mouse xenografted with human HeLa cells assessed as downregulation of pS6 protein expression in tumor at 15 to 60 mg/kg, IG administered daily for 30 days; type: functional, organism-based; details: dose 15-60 mg/kg, time 30.0 day
[26] = tested on: HeLa; experiment: Antitumor activity against human HeLa cells xenografted in BALB/c nude mouse assessed as reduction in Ki67 expression in tumor administered intragastrically daily for 30 days by immunohistochemical analysis; type: functional; details: dose 15-60 mg/kg, route ig, time 30.0 day
[27] = target: Phosphatidylinositol 4,5-bisphosphate 3-kinase catalytic subunit alpha isoform (Homo sapiens, UniProt P42336); experiment: Inhibition of PI3Kalpha (unknown origin) using L-alpha-phosphatidylinositol as substrate incubated for 60 mins in presence of ATP by Kinase Glo luminescence assay
Phosphatidylinositol 4,5-bisphosphate 3-kinase catalytic subunit alpha isoform, sequence (P42336 whole entry, canonical isoform): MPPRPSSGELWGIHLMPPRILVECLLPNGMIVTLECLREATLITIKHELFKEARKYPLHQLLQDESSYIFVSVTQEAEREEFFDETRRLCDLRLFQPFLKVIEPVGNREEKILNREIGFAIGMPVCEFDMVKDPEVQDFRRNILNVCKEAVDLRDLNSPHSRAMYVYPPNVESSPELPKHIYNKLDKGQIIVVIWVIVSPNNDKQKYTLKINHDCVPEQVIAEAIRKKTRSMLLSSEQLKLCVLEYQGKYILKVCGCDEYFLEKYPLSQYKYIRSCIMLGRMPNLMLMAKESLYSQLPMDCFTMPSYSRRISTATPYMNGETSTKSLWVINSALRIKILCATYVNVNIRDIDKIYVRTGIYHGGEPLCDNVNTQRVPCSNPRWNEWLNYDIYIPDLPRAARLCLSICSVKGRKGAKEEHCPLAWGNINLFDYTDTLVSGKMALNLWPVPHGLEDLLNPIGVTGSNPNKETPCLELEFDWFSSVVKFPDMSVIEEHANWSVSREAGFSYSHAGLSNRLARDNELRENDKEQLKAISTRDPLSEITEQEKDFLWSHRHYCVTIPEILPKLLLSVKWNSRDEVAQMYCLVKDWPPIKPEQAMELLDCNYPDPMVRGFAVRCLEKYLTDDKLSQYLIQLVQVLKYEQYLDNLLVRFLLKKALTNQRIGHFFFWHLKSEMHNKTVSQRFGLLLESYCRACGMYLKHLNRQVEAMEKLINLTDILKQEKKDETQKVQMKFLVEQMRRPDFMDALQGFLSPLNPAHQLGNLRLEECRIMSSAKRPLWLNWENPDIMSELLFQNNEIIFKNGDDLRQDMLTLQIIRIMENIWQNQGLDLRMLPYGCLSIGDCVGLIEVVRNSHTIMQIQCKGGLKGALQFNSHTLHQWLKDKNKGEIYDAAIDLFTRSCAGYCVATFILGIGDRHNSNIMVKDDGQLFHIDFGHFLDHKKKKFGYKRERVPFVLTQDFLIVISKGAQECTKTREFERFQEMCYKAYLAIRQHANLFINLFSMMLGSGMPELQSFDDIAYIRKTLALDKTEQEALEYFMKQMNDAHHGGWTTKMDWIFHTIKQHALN

[28] = target: T1, Phosphatidylinositol 4,5-bisphosphate 3-kinase catalytic subunit beta isoform; experiment: Inhibition of PI3Kbeta (unknown origin) using L-alpha-phosphatidylinositol as substrate incubated for 60 mins in presence of ATP by Kinase Glo luminescence assay
[29] = target: Phosphatidylinositol 4,5-bisphosphate 3-kinase catalytic subunit gamma isoform (Homo sapiens, UniProt P48736); experiment: Inhibition of PI3Kgamma (unknown origin) using L-alpha-phosphatidylinositol as substrate incubated for 120 mins in presence of ATP by Kinase Glo luminescence assay
Phosphatidylinositol 4,5-bisphosphate 3-kinase catalytic subunit gamma isoform, sequence (P48736 whole entry, the tested form may be a part, canonical isoform): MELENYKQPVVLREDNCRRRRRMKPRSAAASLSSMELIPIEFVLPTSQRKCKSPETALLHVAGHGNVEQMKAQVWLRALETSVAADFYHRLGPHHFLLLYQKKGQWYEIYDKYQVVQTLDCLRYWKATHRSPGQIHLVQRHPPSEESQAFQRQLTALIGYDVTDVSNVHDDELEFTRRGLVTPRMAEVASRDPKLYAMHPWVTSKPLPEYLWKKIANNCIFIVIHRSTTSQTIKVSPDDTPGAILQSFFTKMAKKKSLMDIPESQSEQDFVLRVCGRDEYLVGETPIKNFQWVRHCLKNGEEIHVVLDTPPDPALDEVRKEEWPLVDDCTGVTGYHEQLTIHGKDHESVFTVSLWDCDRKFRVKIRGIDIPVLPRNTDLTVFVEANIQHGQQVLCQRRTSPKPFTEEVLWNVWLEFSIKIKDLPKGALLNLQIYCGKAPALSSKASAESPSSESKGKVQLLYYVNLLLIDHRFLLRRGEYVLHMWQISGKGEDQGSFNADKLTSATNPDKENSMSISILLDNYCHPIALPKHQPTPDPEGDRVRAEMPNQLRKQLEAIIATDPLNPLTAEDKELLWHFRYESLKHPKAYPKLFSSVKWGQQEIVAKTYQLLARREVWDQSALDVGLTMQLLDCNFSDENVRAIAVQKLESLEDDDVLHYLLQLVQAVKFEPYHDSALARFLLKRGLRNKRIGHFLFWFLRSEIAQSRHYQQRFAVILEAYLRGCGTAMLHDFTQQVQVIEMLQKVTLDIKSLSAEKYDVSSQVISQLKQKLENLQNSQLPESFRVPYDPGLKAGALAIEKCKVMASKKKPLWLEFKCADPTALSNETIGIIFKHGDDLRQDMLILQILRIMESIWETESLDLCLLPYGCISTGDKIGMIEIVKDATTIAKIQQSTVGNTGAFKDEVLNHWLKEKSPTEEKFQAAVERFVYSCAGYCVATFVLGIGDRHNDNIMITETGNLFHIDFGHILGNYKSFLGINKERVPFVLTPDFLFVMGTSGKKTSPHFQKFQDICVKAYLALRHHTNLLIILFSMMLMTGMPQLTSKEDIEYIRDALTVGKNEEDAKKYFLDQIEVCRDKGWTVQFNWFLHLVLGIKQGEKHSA

[30] = target: Serine/threonine-protein kinase mTOR (Rattus norvegicus, UniProt P42346); experiment: Inhibition of rat brain mTOR using GST-p70S6K fusion protein as substrate preincubated for 30 mins followed by ATP addition and measured after 30 mins by K-Lisa assay; type: tissue-based

`Cc1nc2cnc3ccc(-c4cnc5[nH]ccc5c4)cc3c2n1-c1ccc(C(C)(C)C#N)nc1` gave an IC50 [1] of 21.3 nM, an IC50 [2] of 108 nM and an IC50 [3] of 290 nM. For the same compound, the inhibition [4] was “Dde”, the Activity [5] was 4.18% and the Activity [6] was 1.92%. The viability at 0.3125 µM [7] was 89.9%, the Activity [8] was 18.32% and the viability at 1.25 µM [9] was 41.2%. For the same compound, the Activity [10] was 26.11%, the Activity [11] was 23.32% and the Activity [12] was 38.86%. The Activity [13] was 6.13%, the inhibition [14] was “Dde” and the Vd [15] was 1.53 L/kg. It also gave a Cmax [16] of 2995 ng/mL, a Tmax [17] of 45 min and an AUC [18] of 7620 ng·h/mL. It also gave a bioavailability [19] of 76.8%, an inhibition in vivo at 15 mg/kg [20] of 60.8% and an inhibition in vivo at 60 mg/kg [21] of 81%. The Activity [22] was “Non-Toxic”, the Activity [23] was “Non-Toxic” and the inhibition [24] was “Active”. For the same compound, the inhibition [25] was “Active”, the Activity [26] was “Active” and the IC50 [27] was 4 nM. The IC50 [28] was 75 nM, the IC50 [29] was 5 nM and the IC50 [30] was 20.7 nM.
